# In patent US20120059053A1, “COMPOUNDS OF 2,3-DIHYDRO-BENZOFURAN” (FERRER INTERNATIONAL, S.A., priority 2007, published 2012):
# Key:
# [1] = Levels in rat plasma after po administration; assay type: in vivo; conditions: 15 min after po administration of 1 mg/Kg
# Brain/plasma ratio = conditions: in vivo
# [2] = Metabolic stability by disappearance of compound on incubation in human microsomes; conditions: 120 min, 1 μM
concentration at 15 min [1] [ng/mL],brain/plasma ratio (Brain/plasma ratio),metabolic stability [2],Compound
98,–,–,"COc1ccc2c(c1)C(CCNC(C)=O)CO2 (stereo not shown) [Example 1, N-[2-(5-methoxy-2,3-dihydro-benzofuran-3-yl)-ethyl]-acetamide]"
10.1,zero,less than 30%,CCC(=O)NCC[C@@H]1CCc2ccc(OC)cc21 [(1S)-N-[2-(6-methoxy-indan-1-yl)-ethyl]-propionamide]
